Measured values published in PMC8729770, “In Vitro Evaluation of Antimicrobial Peptides from the Black Soldier Fly (Hermetia Illucens) against a Selection of Human Pathogens” (Microbiology Spectrum, 2022).
Values joined by “and” are separate entries in the source; they are usually repeats but may differ in a detail not shown here. Identical values can stand only once. Like-named read-outs stand apart in the source and are kept apart here. Ends that are not written are not given here.

How the values were obtained:
P. aeruginosa ATCC 9027 = assay type: cell-based, Pseudomonas aeruginosa; conditions: for IC50: MHB, 37°C, resazurin; for MBC P. aeruginosa ATCC 9027: plated on MHA, ≥3 log reduction vs growth control
Experimental: (§1) To detect antimicrobial activity of the BSF AMPs, the peptide library underwent screening against a panel of microorganisms, consisting of S. aureus ATCC 6538, E. coli ATCC 8739, P. aeruginosa ATCC 9027, C. albicans B59630, and A. fumigatus B42928. Serial dilutions of the peptides were prepared from the DMSO stock solutions in sterile demineralized water in 96-well plates using an automated liquid-handling workstation (Beckman Coulter Biomek 3000) in end volumes of 10 μL. The final in-plate concentration of DMSO was <1%. Peptide concentrations ranged from 64 μM to 0.25 μM for the first evaluation, and from 32 μM to 0.016 μM for the independent repeat. As references, doxycycline (Sigma-Aldrich; S. aureus, E. coli, P. aeruginosa), flucytosine (Sigma-Aldrich; C. albicans), and econazole (Sigma-Aldrich; A. fumigatus) were used. Suspensions of a starting inoculum of 5 × 10^3 CFU/mL (E. coli, S. aureus, C. albicans, A. fumigatus) and 5 × 10^4 CFU/mL (P. aeruginosa) were prepared in MHB (bacterial species) or RPMI medium (fungal species) and 190 μL was added to the 96-well plates. Plates were incubated for 16 h (E. coli, S. aureus, P. aeruginosa), 24 h (C. albicans), or 48 h (A. fumigatus) at 37°C. After incubation, read-out of the antimicrobial activity was performed using a resazurin assay. Then, 20 μL of a 0.01% (wt/vol) resazurin (Sigma-Aldrich) solution was added to each well and plates were incubated for 15 min (S. aureus), 30 min (E. coli), 45 min (P. aeruginosa), 4 h (C. albicans), or 17 h (A. fumigatus) to allow resazurin reduction to take place. Fluorescence was read using a microplate reader (Telix) at λexcitation = 550 nm and λemission = 590. […] MIC values were determined visually. Medium in the wells with no visual growth was plated on MHA to detect the MBC, defined as ≥3 log reduction compared with the growth control.

S. aureus ATCC 6538 = assay type: cell-based, Staphylococcus aureus; conditions: for IC50: MHB, 37°C, resazurin, 50% growth inhibition; for IC50 / MIC S. aureus ATCC 6538: 16 h; for MIC S. aureus ATCC 6538: determined visually; for MBC S. aureus ATCC 6538: wells without visual growth plated on MHA, ≥3 log reduction vs growth control
Experimental: as §1

C. albicans B59630 = assay type: cell-based, Candida albicans; conditions: RPMI, 24 h, 37°C, resazurin
Experimental: as §1

[1] = test system: MRC5-SV2 cell line of human, embryonic lung fibroblasts; assay: Cytotoxicity screening of the peptide library; assay type: cell-based; conditions: 72 h, 37°C, resazurin fluorescence
Experimental: To determine early signs of peptide toxicity, the library was tested against the MRC5-SV2 cell line of human, embryonic lung fibroblasts (Sigma-Aldrich). Peptides were serially diluted in 96-well plates as described earlier at concentrations ranging from 64 μM to 0.25 μM for the first screening, and from 32 μM to 0.016 μM for the independent repeat. Tamoxifen (Sigma-Aldrich) was included as a reference compound. After preparation of the test plates, cell suspension (190 μL) of 1.5 × 10^5 cells/mL in complete minimum essential medium (Gibco) was added to the peptides. Plates were incubated for 72 h at 37°C in a 5% CO2 incubator (Binder). Afterwards, 50 μL of a 0.01% (wt/vol) resazurin (Sigma-Aldrich) solution was added to the wells to detect cell viability.

E. coli ATCC 8739 = assay type: cell-based, Escherichia coli; conditions: for IC50: MHB, 37°C, resazurin
Experimental: as §1

A. fumigatus B42928 = assay type: cell-based, Aspergillus fumigatus; conditions: RPMI, 48 h, 37°C, resazurin
Experimental: as §1

[2] = repeat 1, 64-0.25 μM, determined visually, 16 h
[3] = repeat 2, 32-0.016 μM, determined visually, 16 h
[4] = repeat 1, first screening 64-0.25 μM
[5] = repeat 2, independent repeat 32-0.016 μM
[6] = repeat 2, plated on MHA, ≥3 log reduction vs growth control
[7] = repeat 1, plated on MHA, ≥3 log reduction vs growth control

Substance	IC50 (P. aeruginosa ATCC 9027; repeat 1, 64-0.25 μM, 16 h)	MIC P. aeruginosa ATCC 9027 (P. aeruginosa ATCC 9027; [2])	IC50 (P. aeruginosa ATCC 9027; repeat 2, 32-0.016 μM, 16 h)	MIC P. aeruginosa ATCC 9027 (P. aeruginosa ATCC 9027; [3])	IC50 (S. aureus ATCC 6538; repeat 1, 64-0.25 μM)	MIC S. aureus ATCC 6538 (S. aureus ATCC 6538; repeat 1, 64-0.25 μM)	IC50 (S. aureus ATCC 6538; repeat 2, 32-0.016 μM)	MIC S. aureus ATCC 6538 (S. aureus ATCC 6538; repeat 2, 32-0.016 μM)	IC50 (C. albicans B59630; repeat 1, 64-0.25 μM)	IC50 (C. albicans B59630; repeat 2, 32-0.016 μM)	IC50 [1, 4]	IC50 [1, 5]	IC50 (E. coli ATCC 8739; repeat 1, 64-0.25 μM, 16 h)	MIC E. coli ATCC 8739 (E. coli ATCC 8739; [2])	IC50 (E. coli ATCC 8739; repeat 2, 32-0.016 μM, 16 h)	MIC E. coli ATCC 8739 (E. coli ATCC 8739; [3])	IC50 (A. fumigatus B42928; repeat 1, 64-0.25 μM)	IC50 (A. fumigatus B42928; repeat 2, 32-0.016 μM)	MBC P. aeruginosa ATCC 9027 (P. aeruginosa ATCC 9027; repeat 1)	MBC P. aeruginosa ATCC 9027 (P. aeruginosa ATCC 9027; repeat 2)	also measured
AMCDLLSGLNMGRSVCAMRCILKGHRGGWCDDQGVCNCRV [Hill-Def5, Defensin without disulfide bridges]	> 64 µM	> 64.00 µM	> 32 µM	> 32.00 µM	> 64 µM	> 64.00 µM	> 32 µM	> 32.00 µM	> 64 µM	> 32 µM	> 64 µM	> 32 µM	> 64 µM	> 64.00 µM	> 32 µM	> 32.00 µM	> 64 µM	> 32 µM			
ATCDLLSPFKVGHAACAAHCIARGKRGGWCDKRAVCNCRK (also: bicyclic or more (positions not given here)) [Hill-Def2b, Defensin with disulfide bridges, counterpart of Hill-Def2a]	> 64 µM	> 32.00 µM and >64.00 µM	> 32 µM	> 64.00 µM and >32.00 µM	8.5 µM	64.00 µM	13.5 µM	> 32.00 µM and 32.00 µM	> 64 µM	> 32 µM	> 64 µM	> 32 µM	> 64 µM	> 32.00 µM	> 32 µM	> 64.00 µM and 64.00 µM	> 64 µM	> 32 µM			concentration for 90% growth inhibition of S. aureus / activity against S. aureus (S. aureus ATCC 6538; library screening, both repeats): 32 µM and 64 µM; MBC S. aureus ATCC 6538 (S. aureus ATCC 6538; repeat 1): static; MBC S. aureus ATCC 6538 (S. aureus ATCC 6538; repeat 2): static
ATCTNWNCRTQCIARGKRGGYCVERNICKCTS [Hill-Def3, Defensin without disulfide bridges]	> 64 µM	> 64.00 µM	> 3 µM	> 32.00 µM	> 64 µM	> 64.00 µM	> 32 µM	> 32.00 µM	> 64 µM	> 32 µM	> 64 µM	> 32 µM	> 64 µM	> 64.00 µM	> 32 µM	> 32.00 µM	> 64 µM	> 32 µM			
DQSKEPFKPMERPYQRVRDAKIQGITIAQNGPNVLAITRGGLEQ [Hill-Cec6, Cecropin, C-terminal amidation]	> 64 µM	> 32.00 µM	> 32 µM		> 64 µM	> 64.00 µM	> 32 µM	> 32.00 µM	> 64 µM	> 32 µM	> 64 µM	> 32 µM	> 64 µM	> 32.00 µM	> 32 µM	> 64.00 µM	> 64 µM	> 32 µM	16.00 µM	2.00 µM	MBC E. coli ATCC 8739 (E. coli ATCC 8739; [6]): 2.00 µM
GWWKRVFKPVEKFGQRVRDAGIQGIEIAQQGANVLATARGGPPQQ-NH2 [Hill-Cec8]				8.00 µM		> 64.00 µM		> 32.00 µM								2.00 µM			64.00 µM	8.00 µM	MIC P. aeruginosa ATCC 9027 (P. aeruginosa ATCC 9027; ATCC 9027, 16 h): 4.00 µM; MBC E. coli ATCC 8739 (E. coli ATCC 8739; ATCC 8739, 16 h): 1.00 µM; MIC E. coli ATCC 8739 (E. coli ATCC 8739; ATCC 8739, 16 h): 1.00 µM; MBC E. coli ATCC 8739 (E. coli ATCC 8739; [6]): 8.00 µM
GWWKRVFKPVEKFGQRVRDAGVQGIAIAQQGANVLATARGGPPQQ-NH2 [Hill-Cec2]		4.00 µM		2.00 µM		> 64.00 µM		> 32.00 µM						1.00 µM		2.00 µM			16.00 µM	2.00 µM	MBC E. coli ATCC 8739 (E. coli ATCC 8739; [7]): 1.00 µM; MBC E. coli ATCC 8739 (E. coli ATCC 8739; [6]): 2.00 µM
GWWKRVFKPVEKLGQRVRDAGIQGLEIAQQGANVLATARGGPPQQ-NH2 [Hill-Cec3]		4.00 µM		2.00 µM		> 64.00 µM		> 32.00 µM						1.00 µM		0.50 µM			16.00 µM	2.00 µM	MBC E. coli ATCC 8739 (E. coli ATCC 8739; [7]): 1.00 µM; MBC E. coli ATCC 8739 (E. coli ATCC 8739; [6]): 32.00 µM
GWWKRVFKPVERLGQRVRDAGIQGLQIAQQGANVLATVRGGPPQQ-NH2 [Hill-Cec4]		1.00 µM		2.00 µM		> 64.00 µM		> 32.00 µM						1.00 µM		2.00 µM			16.00 µM	2.00 µM	MBC E. coli ATCC 8739 (E. coli ATCC 8739; [7]): static; MBC E. coli ATCC 8739 (E. coli ATCC 8739; [6]): 2.00 µM
LSCLFENQAVSAIACGASCITRKGKRGGWCSNGVCRCTPN [Hill-Def6, Defensin without disulfide bridges]	> 64 µM	> 64.00 µM	> 32 µM	> 32.00 µM	> 64 µM	> 64.00 µM	> 32 µM	> 32.00 µM	> 64 µM	> 32 µM	> 64 µM	> 32 µM	> 64 µM	> 64.00 µM	> 32 µM	> 32.00 µM	> 64 µM	> 32 µM			
QLPCDYLSGLGFGEDACNTDCIAKGHKSGFCTGLVCRCRTL [Hill-Def8, Defensin without disulfide bridges]	> 64 µM	> 64.00 µM	> 32 µM	> 32.00 µM	> 64 µM	> 64.00 µM	> 32 µM	> 32.00 µM	> 64 µM	> 32 µM	> 64 µM	> 32 µM	> 64 µM	> 64.00 µM	> 32 µM	> 32.00 µM	> 64 µM	> 32 µM			
RSLWKKLFKPVERAGQRIRDATIKGIVIAQQGANVLATIRGGPAIPPGQ-NH2 [Hill-Cec12]				2.00 µM		> 64.00 µM		> 32.00 µM						0.25 µM		2.00 µM			static	8.00 µM	MIC P. aeruginosa ATCC 9027 (P. aeruginosa ATCC 9027; ATCC 9027, 16 h): 1.00 µM; MBC E. coli ATCC 8739 (E. coli ATCC 8739; ATCC 8739, 16 h): 1.00 µM; MBC E. coli ATCC 8739 (E. coli ATCC 8739; [6]): 8.00 µM
